In publication PMC11514289 (Nature Communications, 2024):
pKd: −log10 of the molar value.

Columns and labels:
[1] = target: T1, SaSir2-HerA (Staphylococcus aureus, UniProt C1PH93); experiment: biolayer interferometry, protein captured on Ni-NTA sensor; format: binding
T1 sequence (C1PH93 1-428): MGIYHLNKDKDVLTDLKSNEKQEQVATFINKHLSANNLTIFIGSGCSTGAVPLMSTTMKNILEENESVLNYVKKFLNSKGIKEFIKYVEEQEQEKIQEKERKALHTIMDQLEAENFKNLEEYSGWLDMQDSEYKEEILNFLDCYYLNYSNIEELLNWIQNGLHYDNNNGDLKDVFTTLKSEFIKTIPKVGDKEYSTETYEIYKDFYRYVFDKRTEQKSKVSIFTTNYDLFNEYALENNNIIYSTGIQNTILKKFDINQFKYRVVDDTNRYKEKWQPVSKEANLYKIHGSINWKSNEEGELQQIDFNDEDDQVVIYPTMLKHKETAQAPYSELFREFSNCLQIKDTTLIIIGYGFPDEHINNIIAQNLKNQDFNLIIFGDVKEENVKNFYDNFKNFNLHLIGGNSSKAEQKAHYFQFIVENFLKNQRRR
T1 sequence (C1PH94 1-562 partner): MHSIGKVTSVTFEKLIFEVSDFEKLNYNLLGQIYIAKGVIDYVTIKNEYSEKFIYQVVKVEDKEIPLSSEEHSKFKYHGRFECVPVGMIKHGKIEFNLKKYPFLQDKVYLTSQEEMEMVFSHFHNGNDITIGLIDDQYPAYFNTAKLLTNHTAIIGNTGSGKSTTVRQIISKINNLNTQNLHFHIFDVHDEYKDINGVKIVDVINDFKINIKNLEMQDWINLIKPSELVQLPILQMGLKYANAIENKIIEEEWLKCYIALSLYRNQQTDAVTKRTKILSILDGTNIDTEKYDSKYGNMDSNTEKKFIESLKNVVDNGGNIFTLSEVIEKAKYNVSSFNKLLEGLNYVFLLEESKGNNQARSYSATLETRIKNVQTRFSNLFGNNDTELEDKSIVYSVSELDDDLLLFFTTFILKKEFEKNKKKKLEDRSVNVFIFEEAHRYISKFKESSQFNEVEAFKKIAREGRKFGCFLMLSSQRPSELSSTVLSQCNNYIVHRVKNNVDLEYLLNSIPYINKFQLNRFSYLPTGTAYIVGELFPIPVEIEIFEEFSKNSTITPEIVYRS

[2] = target: SaSir2 (Sir2 of Staphylococcus aureus), 6x His-tagged, expressed alone (Staphylococcus aureus); experiment: AUC

`NC(=O)c1ccc[n+]([C@@H]2O[C@H](COP(=O)(O)OP(=O)(O)OC[C@H]3O[C@@H](n4cnc5c(N)ncnc54)[C@H](O)[C@@H]3O)[C@@H](O)[C@H]2O)c1` [NAD^+] was tested, and the pKd [1] was 5.36.

“SaSir2 (Sir2 of Staphylococcus aureus), 6x His-tagged, expressed alone (enzyme)” was tested, and the stoichiometry N [2] was 2.
